# Laboratory results: patent US20180021360A1, “Combination Therapy Regimen For Treatment Of Selected HCV Genotypes” (JANSSEN PHARMACEUTICALS, INC., priority 2016, published 2018)
# Assays:
# [1] = Phase-1 drug-drug interaction study of Odalasvir, Simeprevir and Compound (III) in healthy volunteers; type: in vivo, human
# From the text: The following daily doses were employed:
# HCV genotype 3 = test: activity against genotype 3 in vitro; set-up: species or system hepatitis C virus
# OATP1B1 = biological target: T1, OATP1B1 (Homo sapiens, UniProt Q9Y6L6); settings: cited from earlier work
# T1 sequence (Q9Y6L6 1-691): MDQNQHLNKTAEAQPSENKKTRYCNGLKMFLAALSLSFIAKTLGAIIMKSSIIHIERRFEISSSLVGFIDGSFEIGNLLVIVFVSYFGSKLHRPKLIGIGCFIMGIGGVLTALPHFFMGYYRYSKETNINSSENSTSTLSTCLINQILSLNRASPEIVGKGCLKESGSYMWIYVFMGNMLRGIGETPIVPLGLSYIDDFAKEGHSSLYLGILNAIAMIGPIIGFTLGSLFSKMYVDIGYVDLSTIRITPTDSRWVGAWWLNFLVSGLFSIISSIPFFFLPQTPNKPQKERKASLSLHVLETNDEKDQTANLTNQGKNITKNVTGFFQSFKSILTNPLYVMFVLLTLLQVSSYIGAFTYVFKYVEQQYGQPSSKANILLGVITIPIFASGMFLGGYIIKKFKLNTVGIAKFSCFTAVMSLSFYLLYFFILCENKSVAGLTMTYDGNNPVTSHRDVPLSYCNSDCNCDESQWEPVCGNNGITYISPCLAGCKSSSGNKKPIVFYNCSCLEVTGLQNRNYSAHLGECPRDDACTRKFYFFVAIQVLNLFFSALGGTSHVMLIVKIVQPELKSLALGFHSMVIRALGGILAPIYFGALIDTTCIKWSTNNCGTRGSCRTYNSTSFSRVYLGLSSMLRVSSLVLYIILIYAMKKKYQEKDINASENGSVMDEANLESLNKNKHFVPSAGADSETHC
# BCRP = biological target: T2, BCRP (Homo sapiens, UniProt Q9UNQ0); settings: cited from earlier work
# T2 sequence (Q9UNQ0 1-655): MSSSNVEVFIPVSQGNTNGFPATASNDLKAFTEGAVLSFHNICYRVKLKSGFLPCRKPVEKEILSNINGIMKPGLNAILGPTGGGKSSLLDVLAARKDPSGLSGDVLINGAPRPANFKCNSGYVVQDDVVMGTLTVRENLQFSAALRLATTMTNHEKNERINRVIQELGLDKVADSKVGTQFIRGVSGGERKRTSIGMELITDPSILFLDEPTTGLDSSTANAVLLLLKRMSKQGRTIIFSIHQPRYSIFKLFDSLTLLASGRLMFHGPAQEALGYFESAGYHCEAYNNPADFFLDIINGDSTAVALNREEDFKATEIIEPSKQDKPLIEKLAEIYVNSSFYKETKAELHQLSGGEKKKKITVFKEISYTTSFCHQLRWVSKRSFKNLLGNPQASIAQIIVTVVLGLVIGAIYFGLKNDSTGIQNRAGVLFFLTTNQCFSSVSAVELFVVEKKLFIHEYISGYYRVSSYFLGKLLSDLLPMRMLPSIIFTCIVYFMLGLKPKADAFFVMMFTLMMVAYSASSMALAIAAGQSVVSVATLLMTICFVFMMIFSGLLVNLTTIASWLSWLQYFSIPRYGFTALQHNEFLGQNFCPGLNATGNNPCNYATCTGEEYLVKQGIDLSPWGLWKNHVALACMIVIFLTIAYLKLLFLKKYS
# [2] = PK of single agents vs fixed dose combinations, single dose in healthy volunteers (Example 13); type: in vivo, human; settings: mean ± SD
# Protocol: SMV (100 mg), ODV (50 mg), and Compound (III) (800 mg) were administered as three different formulations or together as single doses in vivo to healthy volunteers. The arms of the study included: • Arm 1 (Reference Arm): Single oral doses of single agents, one SMV 100-mg capsule, one ODV 50-mg tablet as granule layered solid dispersion with copovidone and poloxamers, and two Compound (III) 400-mg tablets, administered together. • Arm 2: Single oral dose of fixed dose combination (FDC02): SMV 100 mg+ODV 50 mg as a spray dried solid dispersion with HPMC-AS L in a ratio ODV/HPMC-AS L 1/1 w/w+Compound (III) 800 mg • Arm 3: Single oral dose of fixed dose combination (FDC04): SMV 100 mg+ODV 50 mg as a spray dried solid dispersion with HPMC-AS L in a ratio ODV/HPMC-AS L 1/3 w/w+Compound (III) 800 mg • Arm 4: Single oral dose of fixed dose combination (FDC01): SMV 100 mg+ODV 50 mg as a spray dried solid dispersion with copovidone and poloxamers+Compound (III) 800 mg
# PK parameters, including Cmax, tmax, AUClast, and AUC∞ were measured for Compound (III), ODV, SMV, and metabolites Compound A-1 and Compound A-3 for each Arm of the study. Arms that included fixed dose combinations (FDC) (Arm 2, Arm 3, and Arm 4) were then compared to a single oral dose (Arm 1, the reference Arm). Table 9, Table 10, Table 11, Table 12 and Table 13 display relevant PK parameters and FIG. 9, FIG. 10, FIG. 11, FIG. 12, and FIG. 13 depict the plasma concentration over time of SMV, ODV, Compound A-1, and Compound A-3 for each Arm of the study.
# CYP = CYP inhibition potential; settings: any CYP
# OATP1B3 = biological target: T3, OATP1B3 (Homo sapiens, UniProt Q9NPD5); settings: cited from earlier work
# T3 sequence (Q9NPD5 1-702): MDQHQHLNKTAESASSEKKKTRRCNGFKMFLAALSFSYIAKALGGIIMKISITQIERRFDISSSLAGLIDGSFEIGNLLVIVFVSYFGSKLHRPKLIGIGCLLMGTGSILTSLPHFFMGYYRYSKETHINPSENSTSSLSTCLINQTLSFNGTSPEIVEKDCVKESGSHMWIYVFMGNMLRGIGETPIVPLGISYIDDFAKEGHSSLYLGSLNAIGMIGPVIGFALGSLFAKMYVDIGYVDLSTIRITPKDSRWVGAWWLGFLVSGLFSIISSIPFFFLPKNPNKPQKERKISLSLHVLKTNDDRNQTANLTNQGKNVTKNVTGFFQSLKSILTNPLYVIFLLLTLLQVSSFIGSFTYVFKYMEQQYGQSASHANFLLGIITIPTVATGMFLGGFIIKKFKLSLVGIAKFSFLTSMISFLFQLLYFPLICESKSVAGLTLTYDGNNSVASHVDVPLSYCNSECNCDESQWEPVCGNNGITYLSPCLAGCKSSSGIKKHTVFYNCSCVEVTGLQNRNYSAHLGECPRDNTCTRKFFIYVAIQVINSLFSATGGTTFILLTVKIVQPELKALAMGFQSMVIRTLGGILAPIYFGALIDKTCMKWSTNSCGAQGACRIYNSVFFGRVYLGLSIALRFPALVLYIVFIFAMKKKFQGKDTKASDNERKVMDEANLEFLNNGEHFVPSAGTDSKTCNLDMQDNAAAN
# [3] = Phase 2a open-label combination study, pharmacokinetics; type: in vivo, human
# Protocol: A randomized, Phase 2a, open-label study was carried out to evaluate the safety, pharmacokinetics and efficacy of the combination of Compound (III), Odalasvir and Simeprevir in Genotype 1 treatment-naïve subjects with chronic hepatitis C. Other treatment-naïve subjects included Genotype 2, 3, 4, 5 and 6.
# The aim of the study was to determine the efficacy, pharmacokinetics (PK), and safety of Compound (II)+Odalasvir±SMV in HCV-infected subjects.
# This was an open-label study evaluating various dosing regimens of Compound (III)+Odalasvir±SMV for 6-8 weeks in treatment-nave HCV-infected subjects with varying clinical characteristics (e.g., GT 1 or 3, presence/absence of compensated Child Pugh A cirrhosis). Efficacy, PK and safety evaluations were conducted during and through 24 weeks post dosing. Up to 15 cohorts were enrolled; data was generated from cohorts that have completed dosing.
# P-gp = P-gp (Homo sapiens, UniProt P08183); settings: cited from earlier work
# MRP2 = MRP2 (Homo sapiens, UniProt Q92887); settings: cited from earlier work
# [4] = co-administered with SMV; cited from earlier work
# [5] = co-administered with SMV; cited from earlier work; remark: listed apart in the source
# BSEP = BSEP (Homo sapiens, UniProt O95342); settings: cited from earlier work
# [6] = Arm 1 (reference): single agents
# [7] = Arm 4: FDC01 (SMV 100 mg + ODV 50 mg spray dried with copovidone and poloxamers + Compound (III) 800 mg)
# Sequence of MRP2 (Q92887 whole entry): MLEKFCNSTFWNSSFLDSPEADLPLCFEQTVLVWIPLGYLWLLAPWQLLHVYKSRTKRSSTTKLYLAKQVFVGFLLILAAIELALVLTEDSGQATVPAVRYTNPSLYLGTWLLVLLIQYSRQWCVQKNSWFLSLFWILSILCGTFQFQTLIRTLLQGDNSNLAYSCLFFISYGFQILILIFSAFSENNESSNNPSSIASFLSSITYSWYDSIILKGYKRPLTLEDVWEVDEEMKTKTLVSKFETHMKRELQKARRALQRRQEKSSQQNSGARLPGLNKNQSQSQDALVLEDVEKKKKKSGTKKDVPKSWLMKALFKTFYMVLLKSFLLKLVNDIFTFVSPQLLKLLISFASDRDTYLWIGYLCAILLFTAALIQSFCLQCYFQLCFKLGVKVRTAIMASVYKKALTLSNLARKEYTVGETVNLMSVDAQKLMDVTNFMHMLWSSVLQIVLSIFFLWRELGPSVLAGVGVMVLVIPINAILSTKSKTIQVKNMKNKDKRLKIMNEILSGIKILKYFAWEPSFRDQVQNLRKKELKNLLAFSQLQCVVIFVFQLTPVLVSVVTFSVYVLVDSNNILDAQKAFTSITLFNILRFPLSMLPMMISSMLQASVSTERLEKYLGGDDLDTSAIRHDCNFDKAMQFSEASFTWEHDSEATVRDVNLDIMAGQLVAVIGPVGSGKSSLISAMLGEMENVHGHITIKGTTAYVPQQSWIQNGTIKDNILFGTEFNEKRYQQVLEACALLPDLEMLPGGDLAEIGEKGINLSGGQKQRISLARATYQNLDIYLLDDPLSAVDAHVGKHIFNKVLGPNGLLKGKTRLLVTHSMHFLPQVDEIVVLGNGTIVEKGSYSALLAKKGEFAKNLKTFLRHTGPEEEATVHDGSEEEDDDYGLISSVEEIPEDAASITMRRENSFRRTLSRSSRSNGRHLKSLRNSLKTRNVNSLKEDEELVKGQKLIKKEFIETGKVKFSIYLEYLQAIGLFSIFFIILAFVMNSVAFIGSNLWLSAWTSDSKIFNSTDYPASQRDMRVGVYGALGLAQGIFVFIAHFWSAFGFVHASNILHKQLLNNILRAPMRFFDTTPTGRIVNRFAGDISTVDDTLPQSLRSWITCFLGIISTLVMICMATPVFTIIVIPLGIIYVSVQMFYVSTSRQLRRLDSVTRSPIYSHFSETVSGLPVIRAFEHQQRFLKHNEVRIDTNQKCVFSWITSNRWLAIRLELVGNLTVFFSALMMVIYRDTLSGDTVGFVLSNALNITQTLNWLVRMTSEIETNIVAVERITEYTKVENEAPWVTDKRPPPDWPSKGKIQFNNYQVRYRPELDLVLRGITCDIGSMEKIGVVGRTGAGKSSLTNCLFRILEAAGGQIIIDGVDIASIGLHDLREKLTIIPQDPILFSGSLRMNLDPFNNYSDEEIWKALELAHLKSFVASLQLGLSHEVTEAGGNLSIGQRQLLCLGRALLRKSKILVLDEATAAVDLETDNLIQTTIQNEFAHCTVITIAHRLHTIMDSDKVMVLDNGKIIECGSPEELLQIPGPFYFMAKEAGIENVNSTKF
# Sequence of BSEP (O95342 whole entry): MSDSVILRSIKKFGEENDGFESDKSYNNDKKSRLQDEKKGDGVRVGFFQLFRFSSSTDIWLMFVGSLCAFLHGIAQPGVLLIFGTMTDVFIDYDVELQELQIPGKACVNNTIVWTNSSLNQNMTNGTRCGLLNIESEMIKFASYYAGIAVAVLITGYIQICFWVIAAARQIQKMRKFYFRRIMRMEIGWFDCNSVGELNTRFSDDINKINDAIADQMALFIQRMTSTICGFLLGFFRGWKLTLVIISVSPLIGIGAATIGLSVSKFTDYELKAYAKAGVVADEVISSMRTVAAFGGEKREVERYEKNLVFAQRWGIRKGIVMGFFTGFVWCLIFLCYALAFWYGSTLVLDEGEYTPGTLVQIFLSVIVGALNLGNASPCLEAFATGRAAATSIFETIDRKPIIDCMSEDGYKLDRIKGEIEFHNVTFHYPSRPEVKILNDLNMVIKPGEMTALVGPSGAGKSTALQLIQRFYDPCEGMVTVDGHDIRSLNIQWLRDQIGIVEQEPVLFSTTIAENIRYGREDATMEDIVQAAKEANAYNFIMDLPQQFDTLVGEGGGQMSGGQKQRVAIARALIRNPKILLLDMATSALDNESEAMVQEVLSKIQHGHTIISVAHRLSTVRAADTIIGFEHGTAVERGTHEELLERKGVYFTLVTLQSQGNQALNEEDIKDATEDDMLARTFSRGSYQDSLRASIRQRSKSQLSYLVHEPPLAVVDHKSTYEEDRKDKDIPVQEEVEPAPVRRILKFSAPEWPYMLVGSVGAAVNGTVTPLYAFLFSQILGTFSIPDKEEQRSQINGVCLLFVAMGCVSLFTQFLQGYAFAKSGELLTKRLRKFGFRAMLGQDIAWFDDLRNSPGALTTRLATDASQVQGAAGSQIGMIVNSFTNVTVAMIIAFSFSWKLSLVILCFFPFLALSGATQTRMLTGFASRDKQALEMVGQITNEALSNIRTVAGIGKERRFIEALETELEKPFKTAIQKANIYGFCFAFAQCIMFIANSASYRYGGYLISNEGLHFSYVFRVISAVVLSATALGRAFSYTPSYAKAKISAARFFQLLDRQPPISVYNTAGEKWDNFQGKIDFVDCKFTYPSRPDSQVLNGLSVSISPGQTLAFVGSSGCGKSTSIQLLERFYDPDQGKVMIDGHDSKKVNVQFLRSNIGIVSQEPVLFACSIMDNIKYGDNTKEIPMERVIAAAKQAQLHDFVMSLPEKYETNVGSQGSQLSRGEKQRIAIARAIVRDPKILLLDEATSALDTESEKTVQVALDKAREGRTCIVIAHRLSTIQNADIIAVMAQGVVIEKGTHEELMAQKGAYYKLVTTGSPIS
# Sequence of P-gp (P08183 whole entry): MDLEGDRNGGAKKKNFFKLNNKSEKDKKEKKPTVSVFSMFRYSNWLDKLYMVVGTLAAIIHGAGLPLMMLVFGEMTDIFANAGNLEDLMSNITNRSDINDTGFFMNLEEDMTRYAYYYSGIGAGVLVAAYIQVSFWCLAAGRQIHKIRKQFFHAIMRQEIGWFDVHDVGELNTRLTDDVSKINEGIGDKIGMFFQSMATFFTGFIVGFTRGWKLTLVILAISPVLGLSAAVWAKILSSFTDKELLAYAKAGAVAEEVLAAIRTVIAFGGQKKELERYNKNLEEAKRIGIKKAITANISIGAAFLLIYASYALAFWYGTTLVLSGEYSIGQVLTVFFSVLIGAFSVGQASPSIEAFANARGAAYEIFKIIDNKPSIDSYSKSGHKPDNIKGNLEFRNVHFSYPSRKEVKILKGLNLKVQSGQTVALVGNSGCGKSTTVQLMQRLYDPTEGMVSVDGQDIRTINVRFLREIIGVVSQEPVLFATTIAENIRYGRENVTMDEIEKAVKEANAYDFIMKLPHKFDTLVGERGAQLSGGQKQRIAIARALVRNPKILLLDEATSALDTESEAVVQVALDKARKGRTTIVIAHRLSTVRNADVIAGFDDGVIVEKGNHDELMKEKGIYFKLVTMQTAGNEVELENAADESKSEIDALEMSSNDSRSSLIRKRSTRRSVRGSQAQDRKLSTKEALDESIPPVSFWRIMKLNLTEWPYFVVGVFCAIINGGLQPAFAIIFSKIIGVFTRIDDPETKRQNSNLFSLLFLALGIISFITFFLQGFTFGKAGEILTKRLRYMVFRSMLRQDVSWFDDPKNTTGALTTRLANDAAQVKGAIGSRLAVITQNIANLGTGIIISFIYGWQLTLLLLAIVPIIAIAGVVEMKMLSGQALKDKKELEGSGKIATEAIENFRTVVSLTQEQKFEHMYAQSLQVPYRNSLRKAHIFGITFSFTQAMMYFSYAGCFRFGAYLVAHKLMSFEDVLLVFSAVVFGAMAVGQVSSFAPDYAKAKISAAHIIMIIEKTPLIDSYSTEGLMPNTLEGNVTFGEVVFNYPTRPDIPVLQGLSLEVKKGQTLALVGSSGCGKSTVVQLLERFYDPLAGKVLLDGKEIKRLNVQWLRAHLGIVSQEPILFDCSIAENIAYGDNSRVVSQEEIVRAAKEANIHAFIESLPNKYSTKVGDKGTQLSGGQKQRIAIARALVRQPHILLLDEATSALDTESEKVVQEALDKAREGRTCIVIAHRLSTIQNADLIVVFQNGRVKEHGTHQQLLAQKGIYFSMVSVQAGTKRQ
Compound,increase of exposure caused by Odalasvir ([1]; DDI study results),increase of exposure caused by SMV ([1]; DDI study results),in vitro inhibition of OATP1B1 (OATP1B1),"t1/2term [2, 6]",t1/2term ([2]; Arm 2: FDC02),t1/2term ([2]; Arm 3: FDC04),t1/2term ([2]; Arm 4: FDC01),CYP inhibition potential (CYP),AUC∞ ([2]; Arm 2: FDC02),AUClast ([2]; Arm 3: FDC04),"Cmax [2, 7]",AUClast ([2]; Arm 4: FDC01),AUC∞ ([2]; Arm 4: FDC01),further results
"CC(C)OC(=O)[C@H](C)N[P@](=O)(OC[C@@]1(F)O[C@@H](n2ccc(=O)[nH]c2=O)[C@](C)(O)[C@@H]1O)Oc1ccccc1 [Compound (III), isopropyl ((S)-(((2S,3S,4R,5R)-5-(2,4-dioxo-3,4-dihydropyrimidin-1 (2H)-yl)-2-fluoro-3,4-dihydroxy-4-methyltetrahydrofuran-2-yl)methoxy)(phenoxy)phosphoryl)-L-alaninate]",4 ×,3 ×,no in vitro inhibition,0.6 ± 0.1 h,0.7 ± 0.2 h,0.7 ± 0.1 h,0.6 ± 0.1 h,limited,,,,,,"bioavailability when SMV and ODV are co-administered with Compound (III), compared to Compound (III) alone ([1]; both, human, in vivo): approximately 8 fold; activity against genotype 3 in vitro (HCV genotype 3): effective; in vitro inhibition of BCRP (BCRP): no in vitro inhibition; in vitro inhibition of OATP1B3 (OATP1B3): no in vitro inhibition"
C[C@]1(O)[C@H](n2ccc(=O)[nH]c2=O)O[C@](F)(CO)[C@H]1O [Compound A-1],1.5 ×,no apparent effect,,19.6 ± 2.7 h,20.5 ± 3.3 h,20.2 ± 3.5 h,18.3 ± 3.5 h,,4369 ± 1345 ng·h/mL,4714 ± 1310 ng·h/mL,607 ± 208 ng/mL,4693 ± 1418 ng·h/mL,4555 ± 787 ng·h/mL,change of A-1 exposure on increasing the Compound (III) dose from 400 to 800 mg ([3]; in vivo): less than proportionally
C[C@H](NP(=O)(O)OC[C@@]1(F)O[C@@H](n2ccc(=O)[nH]c2=O)[C@](C)(O)[C@@H]1O)C(=O)O [Compound A-3],2.6 ×,1.6 ×,,2.6 ± 1.4 h,2.3 ± 0.6 h,2.9 ± 1.5 h,2.5 ± 0.7 h,,817 ± 133 ng·h/mL,,197 ± 62.1 ng/mL,909 ± 244 ng·h/mL,926 ± 245 ng·h/mL,AUClast ([2]; Arm 2: FDC02): 790 ± 157 ng·h/mL
"COc1ccc2c(O[C@@H]3C[C@H]4C(=O)N[C@]5(C(=O)NS(=O)(=O)C6CC6)C[C@H]5/C=C\CCCCN(C)C(=O)[C@@H]4C3)cc(-c3nc(C(C)C)cs3)nc2c1C [Simeprevir, reference compound]",1.6 ×,,strong in vitro inhibition,8.3 ± 1.8 h,8.7 ± 2.3 h,9.1 ± 1.6 h,8.5 ± 1.5 h,limited,,12893 ± 5828 ng·h/mL,,,,"effect of Compound (III) on SMV or ODV ([1]; DDI study results): no apparent effect; increase of exposure, effect of the three Compounds ([1]; DDI study results): 1.6 ×; increase of exposure on co-administration of Compounds I, II and III ([1]; human in vivo study (Example 1)): 1.6 times; effect of Compound (III) on bioavailability of SMV or ODV ([1]; human, in vivo): does not alter; increase of bioavailability of SMV by ODV ([1]; human, in vivo): 1.6 fold; in vitro inhibition of P-gp (P-gp): strong/moderate; in vitro inhibition of MRP2 (MRP2): strong/moderate; observed exposures in Cohort 1 / group (i) ([3]; Compound (III) 400 mg, ODV 50 mg QD, SMV 100 mg QD): higher than anticipated; decrease of SMV exposure on reducing SMV dosing from 100 mg to 75 mg QD ([3]; in vivo): less than proportionally; increase in Rosuvastatin exposure [4]: 3 fold; increase in exposure of Digoxin [5]: 35%; Cmax ([2]; Arm 3: FDC04 (SMV 100 mg + ODV 50 mg spray dried with HPMC-AS L 1/3 w/w + Compound (III) 800 mg)): 906 ± 321 ng/mL; AUC∞ ([2]; Arm 3: FDC04): 13449 ± 6015 ng·h/mL; in vitro inhibition of BSEP (BSEP): strong/moderate"
